# Data: PMC8371461 (Frontiers in Pharmacology, 2021)
# Experiments:
# [1] = target: T1, ABL1(F317I)-phosphorylated (Homo sapiens, UniProt P00519, F317I); test: kinome scan; format: binding; conditions: 10 µM
# T1 construct: purchased DiscoverX (KINOMEscan)
# [2] = target: T2, ABL1(T315I)-phosphorylated (Homo sapiens, UniProt P00519, T315I); test: kinome scan; format: binding; conditions: 10 µM
# T2 construct: purchased DiscoverX (KINOMEscan)
# ABL2 = target: T3, ABL2 (Homo sapiens, UniProt P42684); test: kinome scan; format: binding; conditions: 10 µM
# T3 construct: purchased DiscoverX (KINOMEscan)
# ACVR1 = target: T4, ACVR1 (Homo sapiens, UniProt Q04771); test: kinome scan; format: binding; conditions: 10 µM
# T4 construct: purchased DiscoverX (KINOMEscan)
# BLK = target: T5, BLK (Homo sapiens, UniProt P51451); test: kinome scan; format: binding; conditions: 10 µM
# T5 construct: purchased DiscoverX (KINOMEscan)
# BMX = target: T6, BMX (Homo sapiens, UniProt P51813); test: kinome scan; format: binding; conditions: 10 µM
# T6 construct: purchased DiscoverX (KINOMEscan)
# CAMK2A = target: T7, CAMK2A (Homo sapiens, UniProt Q9UQM7); test: kinome scan; format: binding; conditions: 10 µM
# T7 construct: purchased DiscoverX (KINOMEscan)
# CASK = target: T8, CASK (Homo sapiens, UniProt O14936); test: kinome scan; format: binding; conditions: 10 µM
# T8 construct: purchased DiscoverX (KINOMEscan)
# CDK9 = target: T9, CDK9 (Homo sapiens, UniProt P50750); test: kinome scan; format: binding; conditions: 10 µM
# T9 construct: purchased DiscoverX (KINOMEscan)
# T9 sequence (P50750 whole entry): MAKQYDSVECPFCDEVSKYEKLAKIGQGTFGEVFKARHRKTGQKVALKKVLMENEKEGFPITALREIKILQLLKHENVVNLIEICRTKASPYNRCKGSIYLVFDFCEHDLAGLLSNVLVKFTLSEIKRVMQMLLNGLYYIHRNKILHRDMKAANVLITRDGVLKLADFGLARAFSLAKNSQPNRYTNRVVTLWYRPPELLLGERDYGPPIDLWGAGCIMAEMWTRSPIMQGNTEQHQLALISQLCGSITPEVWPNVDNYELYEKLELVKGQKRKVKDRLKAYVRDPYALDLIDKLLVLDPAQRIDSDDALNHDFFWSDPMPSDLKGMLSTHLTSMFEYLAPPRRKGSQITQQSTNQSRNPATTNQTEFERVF
# DAPK1 = target: T10, DAPK1 (Homo sapiens, UniProt P53355); test: kinome scan; format: binding; conditions: 10 µM
# T10 construct: purchased DiscoverX (KINOMEscan)
# DYRK2 = target: T11, DYRK2 (Homo sapiens, UniProt Q92630); test: kinome scan; format: binding
# T11 construct: purchased DiscoverX (KINOMEscan)
# T11 sequence (Q92630 1-601): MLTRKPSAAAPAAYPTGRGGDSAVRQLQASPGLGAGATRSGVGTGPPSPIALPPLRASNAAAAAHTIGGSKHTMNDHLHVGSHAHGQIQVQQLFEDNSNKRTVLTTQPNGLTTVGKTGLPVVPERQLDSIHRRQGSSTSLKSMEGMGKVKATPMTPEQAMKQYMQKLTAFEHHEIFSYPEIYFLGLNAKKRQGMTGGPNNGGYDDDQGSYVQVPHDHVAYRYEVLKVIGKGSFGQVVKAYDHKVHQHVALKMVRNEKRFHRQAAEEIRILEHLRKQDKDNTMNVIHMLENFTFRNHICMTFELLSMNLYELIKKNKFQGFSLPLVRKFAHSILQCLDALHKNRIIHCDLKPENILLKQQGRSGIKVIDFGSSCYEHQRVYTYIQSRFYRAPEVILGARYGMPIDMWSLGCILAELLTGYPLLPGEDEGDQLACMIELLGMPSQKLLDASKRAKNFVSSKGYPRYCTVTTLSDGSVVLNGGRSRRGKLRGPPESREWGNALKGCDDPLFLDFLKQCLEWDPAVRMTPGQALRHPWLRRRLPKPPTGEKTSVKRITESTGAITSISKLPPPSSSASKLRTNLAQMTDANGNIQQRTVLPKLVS
# EGFR = target: T12, EGFR (Homo sapiens, UniProt P00533); test: kinome scan; format: binding; conditions: 10 µM
# T12 construct: purchased DiscoverX (KINOMEscan)
# T12 sequence (P00533 25-1210): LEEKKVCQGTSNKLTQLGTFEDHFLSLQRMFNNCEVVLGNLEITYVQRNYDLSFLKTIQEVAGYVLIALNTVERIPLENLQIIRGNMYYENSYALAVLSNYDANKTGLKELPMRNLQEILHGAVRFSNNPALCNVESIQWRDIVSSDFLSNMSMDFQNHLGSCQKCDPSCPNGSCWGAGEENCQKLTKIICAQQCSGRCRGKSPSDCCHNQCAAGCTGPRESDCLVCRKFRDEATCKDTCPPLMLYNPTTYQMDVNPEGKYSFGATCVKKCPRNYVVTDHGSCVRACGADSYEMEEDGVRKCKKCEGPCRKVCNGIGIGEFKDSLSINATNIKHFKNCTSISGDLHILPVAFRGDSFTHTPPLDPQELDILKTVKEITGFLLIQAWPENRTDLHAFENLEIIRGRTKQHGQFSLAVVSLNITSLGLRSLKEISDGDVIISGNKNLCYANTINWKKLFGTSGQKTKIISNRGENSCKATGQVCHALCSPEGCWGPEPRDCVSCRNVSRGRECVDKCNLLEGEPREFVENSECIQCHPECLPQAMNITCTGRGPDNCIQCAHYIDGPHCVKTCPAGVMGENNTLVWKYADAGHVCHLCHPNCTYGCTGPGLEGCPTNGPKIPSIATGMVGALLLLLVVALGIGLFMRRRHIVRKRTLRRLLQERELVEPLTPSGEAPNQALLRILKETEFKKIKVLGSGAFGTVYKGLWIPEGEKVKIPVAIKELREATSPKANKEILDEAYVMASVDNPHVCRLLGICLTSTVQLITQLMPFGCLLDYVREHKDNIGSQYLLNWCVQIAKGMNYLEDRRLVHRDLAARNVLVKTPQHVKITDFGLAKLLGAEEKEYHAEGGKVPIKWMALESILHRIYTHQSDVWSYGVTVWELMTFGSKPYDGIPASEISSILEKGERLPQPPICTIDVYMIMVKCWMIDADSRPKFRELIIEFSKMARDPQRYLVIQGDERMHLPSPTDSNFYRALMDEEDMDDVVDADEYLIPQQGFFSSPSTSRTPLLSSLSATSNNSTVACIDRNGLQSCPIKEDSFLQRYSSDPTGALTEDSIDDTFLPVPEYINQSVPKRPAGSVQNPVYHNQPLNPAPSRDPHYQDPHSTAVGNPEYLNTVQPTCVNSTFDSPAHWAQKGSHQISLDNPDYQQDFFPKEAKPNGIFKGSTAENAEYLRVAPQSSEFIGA
# EIF2AK1 = target: T13, EIF2AK1 (Homo sapiens, UniProt Q9BQI3); test: kinome scan; format: binding; conditions: 10 µM
# T13 construct: purchased DiscoverX (KINOMEscan)
# FYN = target: T14, FYN (Homo sapiens, UniProt P06241); test: kinome scan; format: binding; conditions: 10 µM
# T14 construct: purchased DiscoverX (KINOMEscan)
# [3] = target: T15, JAK3(JH1domain-catalytic) (Homo sapiens, UniProt P52333); test: kinome scan; format: binding; conditions: 10 µM
# T15 construct: JAK3(JH1domain-catalytic); purchased DiscoverX (KINOMEscan)
# LOK = target: T16, LOK (Homo sapiens, UniProt O94804); test: kinome scan; format: binding; conditions: 10 µM
# T16 construct: purchased DiscoverX (KINOMEscan)
# LYN = target: T17, LYN (Homo sapiens, UniProt P07948); test: kinome scan; format: binding; conditions: 10 µM
# T17 construct: purchased DiscoverX (KINOMEscan)
# T17 sequence (P07948 whole entry): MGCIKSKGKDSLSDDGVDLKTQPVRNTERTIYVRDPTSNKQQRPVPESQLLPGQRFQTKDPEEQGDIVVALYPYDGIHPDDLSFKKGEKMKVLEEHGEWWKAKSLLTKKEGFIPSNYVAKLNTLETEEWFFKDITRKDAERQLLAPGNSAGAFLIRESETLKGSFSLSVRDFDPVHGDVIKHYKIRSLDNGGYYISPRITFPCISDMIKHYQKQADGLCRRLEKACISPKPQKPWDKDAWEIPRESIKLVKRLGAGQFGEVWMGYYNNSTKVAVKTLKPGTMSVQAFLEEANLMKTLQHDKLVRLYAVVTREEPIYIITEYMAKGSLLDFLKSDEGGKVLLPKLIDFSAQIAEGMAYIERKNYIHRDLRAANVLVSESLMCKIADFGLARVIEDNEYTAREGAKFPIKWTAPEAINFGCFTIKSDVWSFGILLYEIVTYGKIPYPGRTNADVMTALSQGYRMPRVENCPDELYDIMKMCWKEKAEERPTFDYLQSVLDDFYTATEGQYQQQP
# MAP3K2 = target: T18, MAP3K2 (Homo sapiens, UniProt Q9Y2U5); test: kinome scan; format: binding; conditions: 10 µM
# T18 construct: purchased DiscoverX (KINOMEscan)
# MEK3 = target: T19, MEK3 (Homo sapiens, UniProt P46734); test: kinome scan; format: binding; conditions: 10 µM
# T19 construct: purchased DiscoverX (KINOMEscan)
# MST2 = target: T20, MST2 (Homo sapiens, UniProt Q13188); test: kinome scan; format: binding; conditions: 10 µM
# T20 construct: purchased DiscoverX (KINOMEscan)
# NEK9 = target: T21, NEK9 (Homo sapiens, UniProt Q8TD19); test: kinome scan; format: binding; conditions: 10 µM
# T21 construct: purchased DiscoverX (KINOMEscan)
# PDGFRB = target: T22, PDGFRB (Homo sapiens, UniProt P09619); test: kinome scan; format: binding; conditions: 10 µM
# T22 construct: purchased DiscoverX (KINOMEscan)
# PFTAIRE2 = target: T23, PFTAIRE2 (Homo sapiens, UniProt Q96Q40); test: kinome scan; format: binding; conditions: 10 µM
# T23 construct: purchased DiscoverX (KINOMEscan)
# T23 sequence (Q96Q40 whole entry): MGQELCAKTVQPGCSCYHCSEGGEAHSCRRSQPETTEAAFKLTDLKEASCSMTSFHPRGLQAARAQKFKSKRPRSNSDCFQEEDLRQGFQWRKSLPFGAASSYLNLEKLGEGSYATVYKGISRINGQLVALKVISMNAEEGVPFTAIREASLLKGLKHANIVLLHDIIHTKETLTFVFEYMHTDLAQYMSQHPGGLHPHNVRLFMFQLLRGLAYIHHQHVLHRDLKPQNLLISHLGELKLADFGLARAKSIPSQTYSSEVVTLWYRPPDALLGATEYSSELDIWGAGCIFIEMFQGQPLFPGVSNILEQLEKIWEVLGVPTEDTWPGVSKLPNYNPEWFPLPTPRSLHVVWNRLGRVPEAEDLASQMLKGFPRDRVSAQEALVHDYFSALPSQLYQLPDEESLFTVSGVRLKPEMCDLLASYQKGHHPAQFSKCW
# PIK3CA(I800L) = target: T24, PIK3CA(I800L) (Homo sapiens, UniProt P42336, I800L); test: kinome scan; format: binding; conditions: 10 µM
# T24 construct: purchased DiscoverX (KINOMEscan)
# T24 sequence (P42336 whole entry I800L): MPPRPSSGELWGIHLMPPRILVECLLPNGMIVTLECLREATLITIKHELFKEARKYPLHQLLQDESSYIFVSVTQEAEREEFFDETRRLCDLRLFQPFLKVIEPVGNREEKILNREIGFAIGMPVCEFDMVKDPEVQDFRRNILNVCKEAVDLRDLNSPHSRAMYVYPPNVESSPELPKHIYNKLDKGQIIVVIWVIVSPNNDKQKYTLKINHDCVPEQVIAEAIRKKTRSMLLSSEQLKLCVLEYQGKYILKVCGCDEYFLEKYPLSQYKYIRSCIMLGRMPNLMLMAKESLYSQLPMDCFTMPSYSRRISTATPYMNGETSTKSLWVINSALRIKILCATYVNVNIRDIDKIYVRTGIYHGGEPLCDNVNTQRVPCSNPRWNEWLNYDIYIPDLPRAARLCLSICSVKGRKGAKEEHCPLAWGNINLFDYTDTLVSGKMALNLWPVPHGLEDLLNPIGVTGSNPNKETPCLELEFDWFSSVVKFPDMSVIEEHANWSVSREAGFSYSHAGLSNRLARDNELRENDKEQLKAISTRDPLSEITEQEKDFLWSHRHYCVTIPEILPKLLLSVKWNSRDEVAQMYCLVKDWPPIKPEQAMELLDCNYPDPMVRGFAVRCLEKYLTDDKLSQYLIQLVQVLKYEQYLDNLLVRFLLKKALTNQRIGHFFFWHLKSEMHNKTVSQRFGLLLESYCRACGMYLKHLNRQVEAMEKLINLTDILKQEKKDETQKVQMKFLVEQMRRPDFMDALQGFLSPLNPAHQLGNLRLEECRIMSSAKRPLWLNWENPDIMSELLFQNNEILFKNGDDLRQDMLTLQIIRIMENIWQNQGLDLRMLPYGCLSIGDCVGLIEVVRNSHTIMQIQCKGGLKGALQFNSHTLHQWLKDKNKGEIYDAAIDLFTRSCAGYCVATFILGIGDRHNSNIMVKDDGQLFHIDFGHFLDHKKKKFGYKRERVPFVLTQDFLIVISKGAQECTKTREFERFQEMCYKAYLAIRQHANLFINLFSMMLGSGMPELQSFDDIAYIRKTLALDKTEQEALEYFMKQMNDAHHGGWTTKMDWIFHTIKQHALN
# PLK1 = target: T25, PLK1 (Homo sapiens, UniProt P53350); test: kinome scan; format: binding; conditions: 10 µM
# T25 construct: purchased DiscoverX (KINOMEscan)
# PLK2 = target: T26, PLK2 (Homo sapiens, UniProt Q9NYY3); test: kinome scan; format: binding; conditions: 10 µM
# T26 construct: purchased DiscoverX (KINOMEscan)
# [4] = target: T27, RSK1(Kin.Dom.2-C-terminal) (Homo sapiens, UniProt Q15418); test: kinome scan; format: binding; conditions: 10 µM
# T27 construct: RSK1(Kin.Dom.2-C-terminal); purchased DiscoverX (KINOMEscan)
# T27 sequence (Q15418 418-675 limits assumed): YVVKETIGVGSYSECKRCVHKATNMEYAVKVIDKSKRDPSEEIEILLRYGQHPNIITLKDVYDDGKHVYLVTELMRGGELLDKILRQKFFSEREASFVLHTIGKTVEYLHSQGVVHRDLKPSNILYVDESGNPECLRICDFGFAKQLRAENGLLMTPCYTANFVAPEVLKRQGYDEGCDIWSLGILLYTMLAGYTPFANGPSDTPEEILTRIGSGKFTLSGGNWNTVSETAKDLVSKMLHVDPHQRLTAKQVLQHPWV
# SIK = target: T28, SIK (Homo sapiens, UniProt P57059); test: kinome scan; format: binding; conditions: 10 µM
# T28 construct: purchased DiscoverX (KINOMEscan)
# T28 sequence (P57059 whole entry): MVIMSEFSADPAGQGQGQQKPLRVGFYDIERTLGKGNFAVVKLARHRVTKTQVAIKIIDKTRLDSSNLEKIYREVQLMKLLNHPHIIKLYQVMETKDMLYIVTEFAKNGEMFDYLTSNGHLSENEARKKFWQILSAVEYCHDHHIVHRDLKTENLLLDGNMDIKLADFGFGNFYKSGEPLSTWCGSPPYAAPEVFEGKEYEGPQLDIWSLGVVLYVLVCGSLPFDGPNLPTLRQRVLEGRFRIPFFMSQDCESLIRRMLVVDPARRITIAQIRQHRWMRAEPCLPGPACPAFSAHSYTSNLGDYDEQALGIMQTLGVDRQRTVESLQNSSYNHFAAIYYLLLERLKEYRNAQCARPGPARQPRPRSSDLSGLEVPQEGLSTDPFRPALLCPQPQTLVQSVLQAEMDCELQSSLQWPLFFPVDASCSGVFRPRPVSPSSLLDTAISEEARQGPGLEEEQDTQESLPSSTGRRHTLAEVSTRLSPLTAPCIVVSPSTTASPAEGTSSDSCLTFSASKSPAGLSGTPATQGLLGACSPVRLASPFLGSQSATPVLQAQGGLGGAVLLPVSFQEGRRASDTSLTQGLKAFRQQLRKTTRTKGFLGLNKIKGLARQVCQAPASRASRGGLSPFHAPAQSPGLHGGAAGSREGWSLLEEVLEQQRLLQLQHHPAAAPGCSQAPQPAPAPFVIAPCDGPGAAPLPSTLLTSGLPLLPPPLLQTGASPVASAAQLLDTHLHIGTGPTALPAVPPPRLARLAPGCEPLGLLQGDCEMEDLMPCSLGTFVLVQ
# SLK = target: T29, SLK (Homo sapiens, UniProt Q9H2G2); test: kinome scan; format: binding; conditions: 10 µM
# T29 construct: purchased DiscoverX (KINOMEscan)
# TLK2 = target: T30, TLK2 (Homo sapiens, UniProt Q86UE8); test: kinome scan; format: binding; conditions: 10 µM
# T30 construct: purchased DiscoverX (KINOMEscan)
# TSSK1B = target: T31, TSSK1B (Homo sapiens, UniProt Q9BXA7); test: kinome scan; format: binding; conditions: 10 µM
# T31 construct: purchased DiscoverX (KINOMEscan)
# TYRO3 = target: T32, TYRO3 (Homo sapiens, UniProt Q06418); test: kinome scan; format: binding; conditions: 10 µM
# T32 construct: purchased DiscoverX (KINOMEscan)
# YANK2 = target: T33, YANK2 (Homo sapiens, UniProt Q9NY57); test: kinome scan; format: binding; conditions: 10 µM
# T33 construct: purchased DiscoverX (KINOMEscan)
# T33 sequence (Q9NY57 whole entry): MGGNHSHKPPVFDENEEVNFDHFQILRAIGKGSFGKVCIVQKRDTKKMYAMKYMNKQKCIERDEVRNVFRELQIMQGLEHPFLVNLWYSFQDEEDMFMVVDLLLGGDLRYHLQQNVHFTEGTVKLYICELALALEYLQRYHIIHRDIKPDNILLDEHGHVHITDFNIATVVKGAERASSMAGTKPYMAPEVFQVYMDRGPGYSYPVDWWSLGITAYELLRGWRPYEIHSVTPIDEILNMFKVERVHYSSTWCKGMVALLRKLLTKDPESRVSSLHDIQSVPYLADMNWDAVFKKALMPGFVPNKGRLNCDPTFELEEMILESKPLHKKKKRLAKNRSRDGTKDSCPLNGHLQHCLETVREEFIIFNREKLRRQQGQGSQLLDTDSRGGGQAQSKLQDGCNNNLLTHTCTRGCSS
# [5] = system: Rat pregnane X receptor (rPXR) signaling pathway; parameters: method as in CHEMBL2114797; conditions: reported activity, data mining; ref CHEMBL2114797; cited from earlier work
smiles,measurement,setting,value
"Nc1ccc(N=Nc2ccccc2)c(N)n1 [phenazopyridine, 2,6-diamino-3-(phenylazo)pyridine]",kinase inhibition,[1],78
same,kinase inhibition,[2],100
same,kinase inhibition,ABL2,96
same,kinase inhibition,ACVR1,100
same,remaining binding (% of control),BLK,100
same,kinase inhibition,BMX,100
same,kinase inhibition,CAMK2A,97
same,kinase inhibition,CASK,99
same,kinase inhibition,CDK9,88
same,kinase inhibition,DAPK1,86
same,percent of control binding,DYRK2; 10 µM,20
same,remaining binding at 10 µM,DYRK2; read-out: % Of control,20%
same,remaining binding (% of control),EGFR,93
same,kinase inhibition,EIF2AK1,100
same,remaining binding (% of control),FYN,100
same,kinase inhibition,[3],100
same,kinase inhibition,LOK,100
same,kinase inhibition,LYN,82
same,kinase inhibition,MAP3K2,85
same,kinase inhibition,MEK3,54
same,kinase inhibition,MST2,73
same,kinase inhibition,NEK9,100
same,kinase inhibition,PDGFRB,44
same,kinase inhibition,PFTAIRE2,96
same,kinase inhibition,PIK3CA(I800L),88
same,remaining binding (% of control),PLK1,79
same,% of control (remaining binding),PLK2,92
same,kinase inhibition,[4],86
same,kinase inhibition,SIK,100
same,kinase inhibition,SLK,100
same,kinase inhibition,TLK2,100
same,kinase inhibition,TSSK1B,87
same,kinase inhibition,TYRO3,94
same,kinase inhibition,YANK2,90
same,Concentration,[5],7 µM
